Experimental data published in US20170304388A1, “NEW INDICATION OF CARDIOVASCULAR DRUGS FOR PREPARATION OF CANCER INHIBITION PHARMACEUTICAL COMPOSITION” (LAUNX BIOMEDICAL CO., LTD., priority 2014, published 2017).
Where two headings read alike, the source gives them in different places.

Columns and labels:
Assay type in all cases: cell-based
[1] = tested on: TSGH-8301 (Urinary Bladder Carcinoma); experiment: Cell viability analysis (WST-1), TSGH-8301; settings: 72 h, Table 4, repeated experiments, drug 10 μM, WST-1, read-out: survival rate (viability) of cancer cells, TSGH-8301
[2] = tested on: AGS (Gastric Adenocarcinoma); experiment: Cell viability analysis (WST-1), AGS; settings: 72 h
[3] = tested on: H1650 (Lung Adenocarcinoma); experiment: Cell viability analysis (WST-1), H1650; settings: Homo sapiens, NCI-H1650, 72 h
[4] = tested on: Hep3B; experiment: Cell viability analysis (WST-1), Hep3B; settings: Homo sapiens, Hep3B, 72 h, Table 4, repeated experiments, drug 10 μM, read-out: survival rate (viability) of cancer cells, Hep3B
In short: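 Seeded at 3000 cells per well, then exposed to drug at 10 μM for 72 h. Viability measured by WST-1 reagent (1:10 in medium) for 30–90 min at 37° C, read as OD450, expressed as survival rate.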

[5] = tested on: MDA-MB231; experiment: Cell viability analysis (WST-1), MDA-MB231; settings: Homo sapiens, MDA-MB-231, 72 h, Table 4, repeated experiments, drug 10 μM, read-out: survival rate (viability) of cancer cells, MDA-MB231
[6] = tested on: BCC; experiment: Cell viability analysis (WST-1), BCC; settings: BCC, 72 h, Table 4, repeated experiments, drug 10 μM, read-out: survival rate (viability) of cancer cells, BCC

In the case of `CCC(C)(C)C(=O)O[C@H]1C[C@@H](C)C=C2C=C[C@H](C)[C@H](CC[C@@H]3C[C@@H](O)CC(=O)O3)[C@H]21` [Simvastatin (Zocor), Simvastatin], the viability at 10 µM [1] is reported as 106%, the viability at 10 µM ([2]; Table 3, drug 10 μM, WST-1, OD450 nm, read-out: survival rate (viability) of cancer cells, AGS) is reported as 85.6% and the viability at 10 µM ([2]; Table 4, repeated experiments, drug 10 μM, WST-1, read-out: survival rate (viability) of cancer cells, AGS) is reported as 81%. The viability at 10 µM ([3]; Table 3, drug 10 μM, WST-1, OD450 nm, read-out: survival rate (viability) of cancer cells, H1650) was 115%, the viability at 10 µM ([3]; Table 4, repeated experiments, drug 10 μM, WST-1, read-out: survival rate (viability) of cancer cells, H1650) was 79.8% and the viability at 10 µM [4] was 114%. It also gave a viability at 10 µM [5] of 71.1% and a viability at 10 µM [6] of 57.4%.
